{
  "source": "paper PMC4095797",
  "about": "(Proteins, 2013)",
  "type_in_all_cases": "binding",
  "key": {"RPD1520 [1]": {"target": "T1, RPD1520 (Rhodopseudomonas pseudopalustris, UniProt A0A1H8UI63)", "assay": "intrinsic tryptophan fluorescence quenching", "conditions": "excitation 275 nm; single-site fit; unit of KD printed as M^-1 (M meant)"}, "BLR7848": {"target": "BLR7848 (Bradyrhizobium diazoefficiens, UniProt Q89CE9)", "assay": "fluorescence thermal shift", "conditions": "10 μM protein, 1000 μM ligand; HEPES pH 7.5"}, "RPB3575": {"target": "RPB3575 (Rhodopseudomonas palustris, UniProt Q2IU40)", "assay": "X-ray crystal structure", "conditions": "co-crystallisation; SeMet protein; 1.70 Å"}, "RPD1889": {"target": "RPD1889 (Rhodopseudomonas palustris, UniProt Q139W5)", "assay": "fluorescence thermal shift", "conditions": "10 μM protein, 1000 μM ligand; HEPES pH 7.5; pre-bound ligand present"}, "RPA1789": {"target": "RPA1789 (Rhodopseudomonas palustris, UniProt Q6N8W4)", "assay": "X-ray crystal structure", "conditions": "co-crystallisation; SeMet protein; 1.60 Å"}, "RPD1520 [2]": {"target": "T1, RPD1520", "assay": "fluorescence thermal shift", "conditions": "10 μM protein, 1000 μM ligand; HEPES pH 7.5"}},
  "data": [
    {"smiles": "O=C(O)C(=O)c1ccccc1", "note": "[BZF, benzoylformic acid]", "values": [
      {"measurement": "KD", "setting": "RPD1520 [1]", "result": "1.50 × 10^-4 ± 0.11 M^-1"}
    ]},
    {"smiles": "O=C(O)/C=C/c1ccc(O)cc1", "note": "[COU, p-coumaric acid]", "values": [
      {"measurement": "dTm", "setting": "BLR7848", "result": "(p- coumaric acid, caffeic acid) produce the maximal observed thermal shifts"},
      {"measurement": "X-ray crystal structure", "setting": "RPB3575", "result": "The structure of RPB3575 with p-coumaric acid (COU)"},
      {"measurement": "dTm", "setting": "RPD1889", "result": "(p- coumaric acid, caffeic acid) produce the maximal observed thermal shifts"},
      {"measurement": "X-ray crystal structure", "setting": "RPA1789", "result": "Structures for RPA1789 and RPB3575 proteins in complex with p-coumaric acid (COU, 4-hydroxycinammic acid)"}
    ]},
    {"smiles": "O=C(O)Cc1ccccc1", "note": "[PAA, phenylacetic acid]", "values": [
      {"measurement": "dTm", "setting": "RPD1520 [2]", "result": "large Tm shifts when phenylacetic acid or hydrocinnamic acid were included"}
    ]},
    {"smiles": "O=C(O)/C=C/c1ccc(O)c(O)c1", "note": "[CAF, caffeic acid]", "values": [
      {"measurement": "dTm", "setting": "BLR7848", "result": "(p- coumaric acid, caffeic acid) produce the maximal observed thermal shifts"},
      {"measurement": "dTm", "setting": "RPD1889", "result": "(p- coumaric acid, caffeic acid) produce the maximal observed thermal shifts"}
    ]},
    {"smiles": "O=C(O)CCc1ccccc1", "note": "[hydrocinnamic acid]", "values": [
      {"measurement": "dTm", "setting": "RPD1520 [2]", "result": "large Tm shifts when phenylacetic acid or hydrocinnamic acid were included"}
    ]}
  ]
}
